Experimental data reported in US10946028B2, “Polymer conjugate of sulfoxide derivative-coordinated platinum(II) complex” (priority 2015, dated 2021).
Values joined by “and” are separate entries in the source; they are usually repeats but may differ in a detail not shown here. Identical values can stand only once. Like-named read-outs stand apart in the source and are kept apart here.

How the values were obtained:
[1] = system: Human gastric cancer 4-1ST; assay: Antitumor Test 1, human gastric cancer 4-1ST-transplanted mouse; assay type: in vivo, BALB/cA-nu/nu mice
Source text: (§1) Human gastric cancer 4-1ST was subcultured and maintained subcutaneously in BALB/cA-nu/nu mice (hereinafter, nude mice). Human gastric cancer 4-1ST was purchased from Central Institute for Experimental Animals.
(§2) Human gastric cancer 4-1ST was collected from the subcutaneous sites of nude mice, and the tumors were finely cut into blocks each measuring about 3 mm on one side. The tumor blocks thus obtained were transplanted subcutaneously into the dorsal side of nude mice using a trocar. On the 18th day after transplantation, when the average tumor volume reached about 100 to 200 mm^3, various drugs were intravenously administered through the caudal vein. […] As control drugs, 1-OHP was administered once at a dose of 20 mg/kg, and cisplatin was administered once at a dose of 10 mg/kg. Regarding the amounts of administration of 1-OHP and cisplatin, and the high amounts of administration of the various Example compounds, the maximum tolerable dose (MTD dose) was employed in all cases.
After the administration of the various drugs, the major axes (L) and the minor axes (W) of the tumors were measured over time using calipers, and the tumor volumes (L×W×W×0.5) were calculated. The test was carried out using four animals per group in all cases for a non-administered group and various drug-administered groups. For a period starting from the initiation of administration to the 20th day after administration, the relative tumor volume (T/C (%)) of each of the drug-administered groups was calculated by the following formula, based on the relative tumor volume of the non-administered group as 100, as an index of the antitumor effect. T/C (%)=Relative tumor volume of administered group/relative tumor volume of non-administered group×100 Formula: […]

[2] = system: Human gastric cancer 4-1ST; assay: Antitumor Test 3, human gastric cancer 4-1ST-transplanted mouse; assay type: in vivo, BALB/cA-nu/nu mice
Source text: as §1
Human gastric cancer 4-1ST was collected from subcutaneous sites of nude mice, and the tumors were finely cut into blocks each measuring about 3 mm on one side. The tumor blocks thus obtained were transplanted subcutaneously into the dorsal side of nude mice using a trocar. On the 17th day after transplantation, when the average tumor volume reached about 100 to 200 mm^3, various drugs were intravenously administered through the caudal vein. […] As a control drug, 1-OHP or cisplatin (CDDP) was administered once at a dose of 18 mg/kg or 10 mg/kg. Regarding the high amounts of administration of the administered compounds, the maximum tolerable dose (MTD dose) was employed in all cases. After the administration of the various drugs, the major axes (L) and the minor axes (W) of the tumors were measured over time using calipers, and the tumor volumes (L×W×W×0.5) were calculated. The test was carried out using four animals per group in all cases for a non-administered group and various drug-administered groups. For a period starting from the initiation of administration to the 21st day after administration, the T/C (%) values of the various drug-administered groups are presented in Table 5.

[3] = Maximum tolerable dose (MTD dose) in the antitumor tests; assay type: in vivo, BALB/cA-nu/nu mice; details: administered once intravenously, nude mice
Procedure: as §2, with “Regarding the amounts of administration of 1-OHP and cisplatin, and the high amounts of administration of the various Example compounds, the maximum tolerable dose (MTD dose) was employed in all cases.” left out
(§3) Human gastric cancer 4-1ST was collected from subcutaneous sites of nude mice, and the tumors were finely cut into blocks each measuring about 3 mm on one side. […] After the administration of the various drugs, the major axes (L) and the minor axes (W) of the tumors were measured over time using calipers, and the tumor volumes (L×W×W×0.5) were calculated. […]
as §3

[4] = system: DAN-G cells; assay: Proliferation inhibition test, concentration/time dependency; assay type: cell-based, Human
Procedure: Human pancreatic cancer cell line, DAN-G, was purchased from Asta Medica GmbH, and the cells were proliferated and subcultured in a recommended medium described in the pamphlet.
For DAN-G cells that had been cultured and proliferated on a 10 cm dish for cell culture, the culture fluid was removed, and the cells were washed once with 5 ml of PBS (phosphate buffered physiological saline). Subsequently, 1 ml of 0.25% trypsin/0.05% EDTA (ethylenediaminetetraacetic acid)/PBS was added to the cells, and the mixture was left to stand for 5 minutes at 37° C. After it was confirmed that the cells had been detached from the dish, 9 ml of medium was added to the dish to disperse the cells, the dispersion was transferred into a 15 ml tube (Corning, Inc.), and the dispersion was centrifuged for 5 minutes at 1,000 rpm. A supernatant was removed, subsequently 10 ml of fresh medium was added to the tube, and the cells were suspended. A portion of the cells was stained with Trypan Blue, and the viable cell count was measured using a hemocytometer. The suspended cells were diluted with medium to a concentration of 2.6×10^4 cells/ml, and the cells were inoculated onto five sheets of 96 well plate (Plates A, B, C, D, and E) at a volume of 190 μl/well (5×10^3 cells/well).
The cells were then cultured under the conditions of 37° C. and 5% CO2. Three replica wells were provided for each drug concentration.
A test was performed under five different conditions by changing the drug addition time.
For Plates A, B, C, D, and E that had been cultured for 72 hours as described above, the medium was removed, subsequently methanol was added to the plates, and the cells were thereby immobilized on the plates. After methanol was removed, a 0.05% Methylene Blue solution was added to the plate, and the cells were stained for 30 minutes. Methylene Blue was removed, any excess stain solution was washed with water, subsequently 3% hydrochloric acid was added to the plate at a volume of 200 μl/well, and thus Methylene Blue was extracted. The plates were left to stand for 2 hours or longer, and the absorbance at 660 nm was measured using a microplate reader (BENCHMARK PLUS, manufactured by Bio-Rad Laboratories, Inc.). Regarding the measured values, the average value of three replicas of a well for each drug concentration was taken. The proliferation inhibition ratio GI(x) % at a drug concentration x was calculated by the following formula from the absorbance values thus measured. GI(x)%=(1−(Ax−B)/(A0−B))×100

[5] = system: Human gastric cancer 4-1ST; assay: Antitumor Test 2, human gastric cancer 4-1ST-transplanted mouse; assay type: in vivo, BALB/cA-nu/nu mice; details: 18 mg/kg once i.v.
Source text: as §1
Human gastric cancer 4-1ST was collected from subcutaneous sites of nude mice, and the tumors were finely cut into blocks each measuring about 3 mm on one side. The tumor blocks thus obtained were transplanted subcutaneously into the dorsal side of nude mice using a trocar. On the 18th day after transplantation, when the average tumor volume reached about 100 to 200 mm^3, various drugs were intravenously administered through the caudal vein. […] As a control drug, 1-OHP was administered once at a dose of 18 mg/kg. […] Regarding Example 3 compound, the dose was less than or equal to the MTD dose; however, the dissolution limit of the compound was administered. After the administration of the various drugs, the major axes (L) and the minor axes (W) of the tumors were measured over time using calipers, and the tumor volumes (L×W×W×0.5) were calculated. The test was carried out using four animals per group in all cases for a non-administered group and various drug-administered groups. For a period starting from the initiation of administration to the 21st day after administration, the T/C (%) values of the various drug-administered groups are presented in Table 4.

[6] = Body weight change in Antitumor Test 3; assay type: in vivo; details: 18 mg/kg once i.v., body weight on day of initiation = 1
Source text: Human gastric cancer 4-1ST was collected from subcutaneous sites of nude mice, and the tumors were finely cut into blocks each measuring about 3 mm on one side. The tumor blocks thus obtained were transplanted subcutaneously into the dorsal side of nude mice using a trocar. On the 17th day after transplantation, when the average tumor volume reached about 100 to 200 mm^3, various drugs were intravenously administered through the caudal vein. […] Regarding the high amounts of administration of the administered compounds, the maximum tolerable dose (MTD dose) was employed in all cases. After the administration of the various drugs, the major axes (L) and the minor axes (W) of the tumors were measured over time using calipers, and the tumor volumes (L×W×W×0.5) were calculated. The test was carried out using four animals per group in all cases for a non-administered group and various drug-administered groups.
After the administration, the body weights of the mice were measured over time.

SMILES: N.N.[Cl][Pt][Cl] [Cisplatin, cisplatin]
- T/C (%) on days after each administration ([1]; 10 mg/kg once i.v., day 0): 100%
- T/C (%) on days after each administration ([1]; 10 mg/kg once i.v., day 3): 91%
- T/C (%) on days after each administration ([1]; 10 mg/kg once i.v., day 6): 49%
- T/C (%) on days after each administration ([1]; 10 mg/kg once i.v., day 9): 32%
- T/C (%) on days after each administration ([1]; 10 mg/kg once i.v., day 13): 31%
- T/C (%) on days after each administration ([1]; 10 mg/kg once i.v., day 16): 35%
- T/C (%) on days after each administration ([1]; 10 mg/kg once i.v., day 20): 36%
- T/C (%) on days after each administration ([2]; 10 mg/kg once i.v., day 0): 100%
- T/C (%) on days after each administration ([2]; 10 mg/kg once i.v., day 4): 77%
- T/C (%) on days after each administration ([2]; 10 mg/kg once i.v., day 7): 43%
- T/C (%) on days after each administration ([2]; 10 mg/kg once i.v., day 11): 32%
- T/C (%) on days after each administration ([2]; 10 mg/kg once i.v., day 14): 36%
- T/C (%) on days after each administration ([2]; 10 mg/kg once i.v., day 18): 37%
- T/C (%) on days after each administration ([2]; 10 mg/kg once i.v., day 21): 42%
- Maximum tolerable dose (MTD dose) [3]: 10 mg/kg

SMILES: O=C1[O][Pt]2([NH][C@@H]3CCCC[C@H]3[NH]2)[O]C1=O [l-OHP, Oxaliplatin]
- IC50 ([4]; drug exposure 6 hours, 72 hours total culture, concentration in terms of DACH-platin, read-out: IC50, 6 hours): 9 µM
- IC50 ([4]; drug exposure 24 hours, 72 hours total culture, concentration in terms of DACH-platin, read-out: IC50, 24 hours): 1.8 µM
- IC50 ([4]; drug exposure 48 hours, 72 hours total culture, concentration in terms of DACH-platin, read-out: IC50, 48 hours): 0.9 µM
- IC50 ([4]; drug exposure 72 hours, concentration in terms of DACH-platin, read-out: IC50, 72 hours): 0.9 µM
- IC50 (6 hours)/IC50 (72 hours) ([4]; ratio of IC50 values): 10.0
- IC50 ([4]; read-out: IC50, 2 hour, drug exposure 2 hours, 72 hours total culture, concentration in terms of DACH-platin): 44.1 µM
- T/C (%) on days after each administration ([1]; 20 mg/kg once i.v., day 0): 100%
- T/C (%) on days after each administration ([1]; 20 mg/kg once i.v., day 3): 96%
- T/C (%) on days after each administration ([1]; 20 mg/kg once i.v., day 6): 53%
- T/C (%) on days after each administration ([1]; 20 mg/kg once i.v., day 9): 46%
- T/C (%) on days after each administration ([1]; 20 mg/kg once i.v., day 13): 46%
- T/C (%) on days after each administration ([1]; 20 mg/kg once i.v., day 16): 51%
- T/C (%) on days after each administration ([1]; 20 mg/kg once i.v., day 20): 50%
- T/C (%) on days after each administration ([5]; day 0): 100%
- T/C (%) on days after each administration ([5]; day 3): 100%
- T/C (%) on days after each administration ([5]; day 7): 65%
- T/C (%) on days after each administration ([5]; day 10): 58%
- T/C (%) on days after each administration ([5]; day 14): 57%
- T/C (%) on days after each administration ([5]; day 17): 61%
- T/C (%) on days after each administration ([5]; day 21): 60%
- T/C (%) on days after each administration ([2]; 18 mg/kg once i.v., day 0): 100%
- T/C (%) on days after each administration ([2]; 18 mg/kg once i.v., day 4): 84%
- T/C (%) on days after each administration ([2]; 18 mg/kg once i.v., day 7): 52%
- T/C (%) on days after each administration ([2]; 18 mg/kg once i.v., day 11): 50%
- T/C (%) on days after each administration ([2]; 18 mg/kg once i.v., day 14): 50%
- T/C (%) on days after each administration ([2]; 18 mg/kg once i.v., day 18): 60%
- T/C (%) on days after each administration ([2]; 18 mg/kg once i.v., day 21): 57%
- Relative body weight on days after administration ([6]; day 0): 1.00
- Relative body weight on days after administration ([6]; day 4): 0.78
- Relative body weight on days after administration ([6]; day 7): 0.83
- Relative body weight on days after administration ([6]; day 11): 0.93
- Relative body weight on days after administration ([6]; day 14): 1.03
- Relative body weight on days after administration ([6]; day 18): 1.09
- Relative body weight on days after administration ([6]; day 21): 1.05
- Maximum tolerable dose (MTD dose) ([3]; listed as 1-OHP): 20 mg/kg and 18 mg/kg
